Results on three compounds are retold here after US8445510B2, “Fused bicyclic kinase inhibitors” (OSI Pharmaceuticals, LLC, priority 2011, dated 2013).

Molecules are shown by their SMILES. Where only a bound is given, the exact number is not on record here.

The term IC50 denotes the concentration at which inhibition is half-maximal.

One experiment relates to Karpas-299 cells. Put plainly: Karpas-299 cell proliferation assay (CellTiter-Glo). Type of experiment: cell-based. The conditions noted are these: Homo sapiens, 72 h; Karpas-299 cell line (NPM-ALK); 3 days incubation; at least duplicate experiments; read-out: Prolif. IC50. A general note: Cellular ATP, detected with luciferase, serves as a proxy for viable cell number.
A further experiment has as its target T1, RON (Homo sapiens, UniProt Q04912).
T1 sequence (Q04912 913-1400): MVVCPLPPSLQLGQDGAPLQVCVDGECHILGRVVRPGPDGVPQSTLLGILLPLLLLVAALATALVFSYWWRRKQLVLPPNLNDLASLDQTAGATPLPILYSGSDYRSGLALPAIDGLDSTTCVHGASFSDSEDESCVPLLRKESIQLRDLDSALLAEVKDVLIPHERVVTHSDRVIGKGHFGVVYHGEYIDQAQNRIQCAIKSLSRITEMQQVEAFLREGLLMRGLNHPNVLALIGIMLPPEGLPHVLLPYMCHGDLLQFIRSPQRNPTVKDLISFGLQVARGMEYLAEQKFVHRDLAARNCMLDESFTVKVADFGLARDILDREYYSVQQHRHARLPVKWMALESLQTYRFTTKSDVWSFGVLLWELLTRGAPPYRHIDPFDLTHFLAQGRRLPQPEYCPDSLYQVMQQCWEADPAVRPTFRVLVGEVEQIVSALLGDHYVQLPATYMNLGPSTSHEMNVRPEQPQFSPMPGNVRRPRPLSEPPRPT
Description: sfRON cell mechanistic assay (HeLa), phosphorylated RON ELISA. Type of experiment: cell-based. The conditions noted are these: HeLa cells transfected with sfRON; inhibition of phosphorylated RON; four hours incubation; at least duplicate experiments; read-out: sfRON mech IC50. Put shortly: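 HeLa cells transiently transfected with sfRON plasmid, then exposed 4 h at 37 °C to a 6-point compound series (typically 10 μM to 3 nM, 0.5% DMSO). Phospho-RON (pY1238/1239) in lysates measured by sandwich ELISA with luminescence. IC50 from 4-parameter fit of percent-of-DMSO-control data, at least duplicate runs.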
(In general: ELISA stands for enzyme-linked immunosorbent assay.)

With `COc1ccc(F)c(Cl)c1[C@@H](C)c1c[nH]c2ncc(-c3cn([C@H]4CC[C@H](C(=O)N(C)C)CC4)nc3C)cc12` [Example 23, trans-4-(4-{3-[(1S)-1-(2-chloro-3-fluoro-6-methoxyphenyl)ethyl]-1H-pyrrolo[2,3-b]pyridin-5-yl}-3-methyl-1H-pyrazol-1-yl)-N,N-dimethylcyclohexanecarboxamide], the results for the IC50 with Karpas-299 cells and on RON were not above 0.05 µM and not above 0.2 µM, respectively.

Turning to `CNC(=O)[C@H]1CC[C@H](n2nc(C)c(-c3cnc4[nH]cc([C@H](C)c5c(OC)ccc(F)c5Cl)c4c3)c2C)CC1` [Example 24, trans-4-(4-{3-[(1S)-1-(2-Chloro-3-fluoro-6-methoxyphenyl)ethyl]-1H-pyrrolo[2,3-b]pyridin-5-yl}-3,5-dimethyl-1H-pyrazol-1-yl)-N-methylcyclohexanecarboxamide], the results for the IC50 with Karpas-299 cells and on RON were not above 0.05 µM and 0.2 to 1 µM, respectively.

`COc1ccc(F)c(Cl)c1[C@@H](C)c1c[nH]c2ncc(-c3cn([C@H]4CC[C@H](O)CC4)nc3C)cc12` [Example 28, trans-4-(4-{3-[(1S)-1-(2-Chloro-3-fluoro-6-methoxyphenyl)ethyl]-1H-pyrrolo[2,3-b]pyridin-5-yl}-3-methyl-1H-pyrazol-1-yl)cyclohexanol]: the IC50 with Karpas-299 cells was not above 0.05 µM; at RON, not above 0.2 µM.
